These results are taken from US7166598B2, “Piperazine derivatives” (Astellas Pharma Inc., priority 1998, dated 2007).

SMILES strings stand for the structures.

A word on the melting point: it is the temperature, or range, at which the solid turns liquid.

Consider `COC[C@@H]1CN(CCN2CCN(C(=O)c3cc(C(F)(F)F)cc(C(F)(F)F)c3)[C@H](Cc3ccc4ccccc4c3)C2)CCO1.Cl.Cl`, for which the melting point was in the range of 145 to 148 °C.
Regarding `Cl.Cl.O=C(c1cc(C(F)(F)F)cc(C(F)(F)F)c1)N1CCN(Cc2cccnc2)C[C@H]1Cc1ccc(Cl)cc1`, the melting point is 220 to 228 °C (dec.).
Next, `COc1cc(C(=O)N2CCN(CCCc3cccnc3)C[C@H]2Cc2ccc(Cl)c(O)c2)cc(C(F)(F)F)c1.Cl.Cl`: 90 to 110 °C; `COC[C@@H]1CN(CCN2CCN(C(=O)c3cc(-c4ccncc4)cc(C(F)(F)F)c3)[C@H](Cc3ccc(C)c(O)c3)C2)CCO1.Cl.Cl.Cl`: 169 to 173 °C.
With `COC[C@@H]1CN(CCN2CCN(C(=O)c3cc(C(F)(F)F)cc(S(C)(=O)=O)c3)[C@H](Cc3ccc(C)c(O)c3)C2)CCO1.Cl.Cl`, the melting point was 173.5 to 178 °C.
Consider `Cl.Cl.Cl.O=C(c1cc([N+](=O)[O-])cc(C(F)(F)F)c1)N1CCN(CCN2CCc3ncccc3C2)C[C@H]1Cc1ccc(Cl)cc1`, for which the melting point was in the range of 221 to 228 °C.
On to `CNc1cc(C(=O)N2CCN(CCN3CCc4ncccc4C3)C[C@H]2Cc2ccc(Cl)cc2)cc(C(F)(F)F)c1.Cl.Cl.Cl`, for which the melting point lay in the range of 199 to 245 °C.
Next, `CSc1cc(C(=O)N2CCN(CCN3CCc4ncccc4C3)C[C@H]2Cc2ccc(Cl)cc2)cc(C(F)(F)F)c1.Cl.Cl.Cl`: 182 to 195 °C; `Cl.Cl.Cl.O=C(c1cc(Cl)cc(C(F)(F)F)c1)N1CCN(CCN2CCc3ncccc3C2)C[C@H]1Cc1ccc(Cl)cc1`: 130.6 to 135.7 °C.
`COC[C@@H]1CN(CCN2CCN(C(=O)c3cc(C(F)(F)F)cc(C(F)(F)F)c3)[C@H](Cc3ccc(C)c(NCN4C(=O)CCC4O)c3)C2)CCO1.Cl.Cl.Cl` (stereo partly shown) showed a melting point of 163 to 176 °C.
Next, `COc1cc(C[C@@H]2CN(CCN3CCOC(C)(C)C3)CCN2C(=O)c2cc(C(F)(F)F)cc(C(F)(F)F)c2)ccc1F.Cl.Cl`: 152 to 162 °C; `CO[C@H]1CN(CCN2CCN(C(=O)c3cc(C(F)(F)F)cc(C(F)(F)F)c3)[C@H](Cc3ccc(Cl)c(O)c3)C2)C[C@@H]1OC.Cl.Cl`: 150 to 155 °C; `Cl.Cl.O=C(c1cc(C(F)(F)F)cc(C(F)(F)F)c1)N1CCN(Cc2c[nH]c3ncccc23)C[C@H]1Cc1ccc(Cl)c(O)c1`: 197 to 200 °C.
In turn, `COC[C@@H]1CN(CCN2CCN(C(=O)c3cc(C(F)(F)F)cc(C(F)(F)F)c3)[C@H](Cc3ccc(Cl)c(OC)c3)C2)CCO1.Cl.Cl` showed a melting point of 145 to 149 °C.
In the case of `COc1cc(C[C@@H]2CN(CCN3C[C@@H](C)O[C@@H](C)C3)CCN2C(=O)c2cc(C(F)(F)F)cc(C(F)(F)F)c2)ccc1F.Cl.Cl` it was 205 to 208 °C.
Next, `Cl.Cl.Cl.O=C(c1cc(C(F)(F)F)cc(C(F)(F)F)c1)N1CCN(CCN2CCc3ncccc3C2)C[C@H]1Cc1ccc(F)c(O)c1`: 240 to 241 °C.
In the case of `COc1cc(C[C@@H]2CN(CCN3CCc4ncccc4C3)CCN2C(=O)c2cc(C(F)(F)F)cc(C(F)(F)F)c2)ccc1C(F)(F)F.Cl.Cl.Cl` it was 195 to 200 °C; in that of `Cl.Cl.Cl.O=C(c1cc(C(F)(F)F)cc(C(F)(F)F)c1)N1CCN(CCN2CCc3ncccc3C2)C[C@H]1Cc1ccc(Cl)cc1`, 172 to 203 °C (dec.); in that of `Cl.Cl.Cl.O=C(c1cc(C(F)(F)F)cc(C(F)(F)F)c1)N1CCN(CCN2CCc3ncccc3C2)C[C@H]1Cc1ccc(F)cc1`, 155.5 to 170.1 °C.
In turn, `COc1cc(C(=O)N2CCN(CC#CCN3CCOCC3(C)C)C[C@H]2Cc2ccc(F)cc2)cc(C(F)(F)F)c1.Cl.Cl` gave a melting point of 137.5 to 140.7 °C.
In the case of `Cl.Cl.Cl.O=C(c1cc(C(F)(F)F)cc(C(F)(F)F)c1)N1CCN(CCN2CCc3ncccc3C2)C[C@H]1Cc1ccc2ccccc2c1` it was 189 to 194 °C.
In the case of `COC[C@@H]1CN(CCN2CCN(C(=O)c3cc(OC)cc(C(F)(F)F)c3)[C@H](Cc3ccc4ccccc4c3)C2)CCO1.Cl.Cl` it was 134 to 140 °C.
